# Assay results published in ChEMBL document CHEMBL3822451, “Structure-based design and synthesis of small molecular inhibitors disturbing the interaction of MLL1-WDR5” (Eur J Med Chem, 2016).
# Columns and labels:
# [1] = molecular target: T1, WD repeat-containing protein 5 (Homo sapiens, UniProt P61964); assay: Inhibition of 10mer-Thr-FAM probe binding to His-tagged human WDR5 expressed in Escherichia coli incubated for 2 hrs by fluorescence polarization assay
# [2] = molecular target: T1, WD repeat-containing protein 5; assay: Binding affinity to His-tagged human WDR5 expressed in Escherichia coli by isothermal titration calorimetry
IC50 [1],Kd [2],SMILES
> 20 µM,–,COc1cccc(NC(=O)c2cc([N+](=O)[O-])ccc2N2CCN(C)CC2)c1
> 20 µM,–,COc1ccc(S(=O)(=O)Nc2cc([N+](=O)[O-])ccc2N2CCN(C)CC2)cc1OC
0.206 µM,–,Cc1c(F)ccc(C(=O)Nc2cc(-c3ccc(N)cc3)ccc2N2CCN(C)CC2)c1Cl
> 20 µM,–,Cc1c(F)ccc(C(=O)Nc2cc(N)ccc2N2CCN(C)CC2)c1Cl
> 20 µM,–,Cc1c(F)ccc(C(=O)Nc2ccc(-c3ccc(C(=O)O)cc3)cc2N2CCN(C)CC2)c1Cl
> 20 µM,–,CN1CCN(c2ccc([N+](=O)[O-])cc2NS(=O)(=O)c2ccc(F)cc2)CC1
> 20 µM,–,Cc1c(F)ccc(C(=O)Nc2ccc(-c3ccncc3)cc2N2CCN(C)CC2)c1Cl
> 20 µM,–,CN1CCN(c2ccc([N+](=O)[O-])cc2C(=O)Nc2ccccc2Cl)CC1
> 20 µM,–,Cc1c(F)ccc(C(=O)Nc2ccc(-c3ccc([N+](=O)[O-])cc3)cc2N2CCN(C)CC2)c1Cl
0.104 µM,0.133 µM,Cc1c(F)ccc(C(=O)Nc2cc(-c3ccncc3)ccc2N2CCN(C)CC2)c1Cl
0.207 µM,–,Cc1c(F)c([N+](=O)[O-])cc(C(=O)Nc2cc(-c3ccccc3)ccc2N2CCN(C)CC2)c1Cl
> 20 µM,–,Cc1c(F)ccc(C(=O)Nc2ccc(-c3ccc(N)cc3)cc2N2CCN(C)CC2)c1Cl
0.466 µM,–,Cc1c(F)ccc(C(=O)Nc2cc(-c3ccccc3)ccc2N2CCN(C)CC2)c1Cl
> 20 µM,–,Cc1cc(C)c(S(=O)(=O)Nc2cc([N+](=O)[O-])ccc2N2CCN(C)CC2)c(C)c1
> 20 µM,–,COc1ccc(S(=O)(=O)Nc2cc([N+](=O)[O-])ccc2N2CCN(C)CC2)cc1
> 20 µM,–,CN1CCN(c2ccc([N+](=O)[O-])cc2C(=O)Nc2ccc(F)cc2F)CC1
